Data published in publication PMC8568530, “Inhibition of Vascular Smooth Muscle and Cancer Cell Proliferation by New VEGFR Inhibitors and Their Immunomodulator Effect: Design, Synthesis, and Biological Evaluation” (Oxidative Medicine and Cellular Longevity, 2021).

Columns and labels:
HepG-2 = test: MTT antiproliferative assay, HepG-2; assay type: cell-based; settings: Homo sapiens, HepG2, hepatocellular carcinoma HepG-2
Method: (§1) The in vitro antiproliferative activities of the newly synthesized compounds were evaluated against a panel of three human tumor cell lines, namely, breast cancer (MCF-7), hepatocellular carcinoma (HepG-2), and colorectal carcinoma (HCT-116) using the standard MTT method. The tested cell lines were selected depending on their VEGF overexpression. Sorafenib, the lead drug, was coassayed as a positive control.
(§2) The antiproliferative activity of the synthesized compounds was evaluated using MTT protocol as described (Supplementary data (available here)).

MCF-7 = test: MTT antiproliferative assay, MCF-7; assay type: cell-based; settings: Homo sapiens, MCF7, breast cancer MCF-7
Method: as §1, §2

HCT-116 = test: MTT antiproliferative assay, HCT-116; assay type: cell-based; settings: Homo sapiens, colorectal carcinoma HCT-116
Method: as §1, §2

[1] = system: WI-38 cell line (normal human lung fibroblasts); test: MTT cytotoxicity against normal cells WI-38; assay type: cell-based; settings: normal human lung fibroblasts WI-38
Method: The cytotoxicity values of the synthesized compounds against the WI-38 cell line (normal human lung fibroblasts) were also evaluated in vitro.
as §2

O=C(NCc1ccccc1)c1ccc(NC(=O)c2cccnc2)cc1 [Compound 6, N-(4-(Benzylcarbamoyl)phenyl)nicotinamide]
IC50 (HepG-2): 15.5 µM | IC50 (MCF-7): 18.3 µM | IC50 (HCT-116): 16.4 µM | melting point: 229 to 232 °C | IC50 [1]: 117 µM

COc1ccccc1NC(=O)c1ccc(NC(=O)c2cccnc2)cc1 [Compound 7c, N-(4-((2-Methoxyphenyl)carbamoyl)phenyl)nicotinamide]
IC50 (HepG-2): 19.4 µM | IC50 (MCF-7): 11.8 µM | IC50 (HCT-116): 15.3 µM | melting point: 185 to 187 °C | IC50 [1]: 137 µM

O=C(Nc1ccccc1)c1ccc(NC(=O)c2cccnc2)cc1 [Compound 7d, N-(4-(Phenylcarbamoyl)phenyl)nicotinamide]
IC50 (HepG-2): 29.1 µM | IC50 (MCF-7): 23.1 µM | IC50 (HCT-116): 31.5 µM | melting point: 232 to 235 °C | IC50 [1]: 144 µM

O=C(Nc1ccc(Cl)cc1)c1ccc(NC(=O)c2cccnc2)cc1 [Compound 7e, N-(4-((4-Chlorophenyl)carbamoyl)phenyl)nicotinamide]
IC50 (HepG-2): 22.4 µM | IC50 (MCF-7): 13.4 µM | IC50 (HCT-116): 17.8 µM | melting point: 272 to 274 °C | IC50 [1]: 143 µM

O=C(Nc1ccc(C(=O)Nc2ccc(Cl)cc2Cl)cc1)c1cccnc1 [Compound 7g, N-(4-((2,4-Dichlorophenyl)carbamoyl)phenyl)nicotinamide]
IC50 (HepG-2): 26.6 µM | IC50 (MCF-7): 42.1 µM | IC50 (HCT-116): 31.7 µM | melting point: 189 to 192 °C | IC50 [1]: 132 µM

O=C(Nc1ccc(C(=O)Nc2ccccc2[N+](=O)[O-])cc1)c1cccnc1 [Compound 7i, N-(4-((2-Nitrophenyl)carbamoyl)phenyl)nicotinamide]
IC50 (HepG-2): 15.2 µM | IC50 (MCF-7): 16.1 µM | IC50 (HCT-116): 18.4 µM | melting point: 198 to 201 °C | IC50 [1]: 103 µM

O=C(N/N=C/c1ccc(F)cc1)c1ccc(NC(=O)c2cccnc2)cc1 [Compound 11a, (E)-N-(4-(2-(4-Fluorobenzylidene)hydrazine-1-carbonyl)phenyl)-nicotinamide]
IC50 (HepG-2): 15.5 µM | IC50 (MCF-7): 12.3 µM | IC50 (HCT-116): 17.2 µM | melting point: 263 to 265 °C | IC50 [1]: 85.1 µM

O=C(N/N=C/c1ccccc1)c1ccc(NC(=O)c2cccnc2)cc1 [Compound 11b, (E)-N-(4-(2-Benzylidenehydrazine-1-carbonyl)phenyl)-nicotinamide]
IC50 (HepG-2): 17.6 µM | IC50 (MCF-7): 15.5 µM | IC50 (HCT-116): 13.4 µM | melting point: 260 to 262 °C | IC50 [1]: 72.3 µM

O=C(N/N=C/c1c(Cl)cccc1Cl)c1ccc(NC(=O)c2cccnc2)cc1 [Compound 11e, (E)-N-(4-(2-(2,6-Dichlorobenzylidene)hydrazine-1-carbonyl)phenyl)-nicotinamide]
IC50 (HepG-2): 23.9 µM | IC50 (MCF-7): 18.2 µM | IC50 (HCT-116): 14.5 µM | melting point: 283 to 285 °C | IC50 [1]: 80.1 µM

O=C(N/N=C/c1ccc(O)cc1)c1ccc(NC(=O)c2cccnc2)cc1 [Compound 11h, (E)-N-(4-(2-(4-Hydroxybenzylidene)hydrazine-1-carbonyl)phenyl)-nicotinamide]
IC50 (HepG-2): 31.1 µM | IC50 (MCF-7): 20.2 µM | IC50 (HCT-116): 34.9 µM | melting point: 256 to 259 °C | IC50 [1]: 103 µM

O=C(CSc1nnc(-c2cccnc2)o1)NCc1ccccc1 [Compound 18c, N-Benzyl-2-((5-(pyridin-3-yl)-1,3,4-oxadiazol-2-yl)thio)acetamide]
IC50 (HepG-2): 8.59 µM | IC50 (MCF-7): 19.4 µM | IC50 (HCT-116): 21.7 µM | melting point: 167 to 169 °C | IC50 [1]: 92.1 µM

CNC(=O)c1cc(Oc2ccc(NC(=O)Nc3ccc(Cl)c(C(F)(F)F)c3)cc2)ccn1 [Sorafenib, reference compound]
IC50 (HepG-2): 3.76 µM | IC50 (MCF-7): 4.32 µM | IC50 (HCT-116): 5.28 µM
